In US9409037B2, “Enhanced anti-microbial PDT” (Biolitec Pharma Marketing LTD, priority 2010, dated 2016):

Tested on: Staphylococcus aureus
Assay: Antimicrobial PDT killing of bacteria in calf serum in a flow system
Type: cell-based
Conditions: 20 μM Safranin O in 99% calf serum; 532 nm laser, fluence rate 30 mW/cm^2, continuous irradiation; three passages, flow rate 10 ml/min
Description: In a separate test a composition comprising Safranin O was added to calf serum (100% serum) solution containing Staphylococcus aureus ([…]), which is a common component of the micro flora of wounds, resulting in a final concentration of 20 μM Safranin O in 99% calf serum. Irradiation was delivered in a flow system corresponding to FIG. 3 B via a light fiber from a laser, Ceralas G2 (Biolitec AG, Germany) operating at 532 nm and using a fluence rate of 30 mW/cm^2.

Question: For Cc1cc2nc3cc(C)c(N)cc3[n+](-c3ccccc3)c2cc1N.[Cl-] [Safranin O], which “percentage of killing of bacteria” value is on record?
Answer: Its value is “about 99.9%”.
